Like-named read-outs stand apart in the source and are kept apart here.
Key:
[1] = test system: symmetric di-methyl arginine in Z-138 cells; assay: Z-138 Methylation Assay (In Cell Western for symmetric di-methyl arginine and DNA content); format: cell-based; details: Homo sapiens, read-out: ICW EC50
In short: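 In-cell western: symmetric di-methyl arginine signal ratioed to DRAQ5 DNA content after 96 h compound exposure of Z-138 cells seeded at 50,000 cells/mL.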

[2] = test system: Z-138 cell line; assay: Z-138 Proliferation Assay (Cell Titer Glo, 5 days); format: cell-based; details: Homo sapiens, read-out: Proliferation EC50
In short: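 Viability via CellTiter-Glo luminescence (ATP) after 5-day incubation at 37 °C, 5% CO2. Compounds tested in triplicate, nine 3-fold steps, highest final concentration 20 μM in 0.2% DMSO; 50% inhibitory concentration by 4-parameter fit of normalized curves.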

Row | Compound | EC50 [1] | EC50 ([2]; 120 h, Z-138 cells, 5 days) | EC50 ([2]; Z-138, 120 h) | EC50 ([1]; In Cell Western methylation) | EC50 ([2]; 120 h, Z-138 cells, 5 days, Cell Titer Glo)
1 | CCOC(=O)CN1CCN(Cc2cccc(C(=O)NCC(O)CN3CCc4ccccc4C3)c2)CC1 (centres unmarked) [Compound 165] | 101 to 1000 nM | 1000 to 10000 nM |  |  | 
2 | CN1CCN(c2cccc(C(=O)NCC(O)CN3CCc4ccccc4C3)c2)CC1 (centres unmarked) [Compound 36] | 101 to 1000 nM | 10000 to 50000 nM |  |  | 
3 | CS(=O)(=O)N1CCC(Oc2cncc(C(=O)NC[C@H](O)CN3CCc4ccccc4C3)c2)CC1 [Compound 290] | 101 to 1000 nM | 10000 to 50000 nM |  |  | 
4 | COCCN1CCC(Oc2ccc(C(=O)NC[C@H](O)CN3CCc4ccccc4C3)cc2)CC1 [Compound 329] | < 100 nM | 101 to 1000 nM |  |  | 
5 | CS(=O)(=O)N1CCC(Nc2ccc(C(=O)NCC(O)CN3CCc4ccccc4C3)cc2)CC1 (centres unmarked) [Compound 141] | < 100 nM | 1000 to 10000 nM |  |  | 
6 | CN(CC(N)=O)Cc1cccc(C(=O)NCC(O)CN2CCc3ccccc3C2)c1 (centres unmarked) [Compound 195] | 101 to 1000 nM | 10000 to 50000 nM |  |  | 
7 | O=C(NCC(O)CN1CCc2ccccc2C1)c1ccc(NC2CCOC2)cc1 (centres unmarked) [Compound 129] | < 100 nM | 1000 to 10000 nM |  |  | 
8 | O=C(NCC(O)CN1CCc2ccccc2C1)c1cccc(-c2cccnc2)c1 (centres unmarked) [Compound 8, N-(3-(3,4-dihydroisoquinolin-2(1H)-yl)-2-hydroxypropyl)-3-(pyridin-3-yl)benzamide] | < 100 nM | 1000 to 10000 nM |  |  | 
9 | O=C(NC[C@H](O)CN1CCc2ccccc2C1)c1cncc(NC2COC2)c1 [Compound 299] | 101 to 1000 nM | 10000 to 50000 nM |  |  | 
10 | O=C(NCC(O)CN1CCc2ccccc2C1)c1cccc(OC2CCNC2)c1 (centres unmarked) [Compound 119] | 101 to 1000 nM | 1000 to 10000 nM |  |  | 
11 | O=C(NC[C@H](O)CN1CCc2ccccc2C1)c1ccnc(NCC2CC2)c1 [Compound 187] | < 100 nM | 101 to 1000 nM |  |  | 
12 | O=C(NC[C@H](O)CN1CCc2ccccc2C1)c1cncc(NC2CCN(CC(F)(F)F)CC2)c1 [Compound 300] | < 100 nM | 1000 to 10000 nM |  |  | 
13 | O=C(NC[C@H](O)CN1CCc2ccccc2C1)c1ccc(OC2CCN(Cc3ccccc3)CC2)cc1 [Compound 330] | < 100 nM | < 100 nM |  |  | 
14 | Cc1ccc(NC2COC2)cc1C(=O)NCC(O)CN1CCc2ccccc2C1 (centres unmarked) [Compound 97] | < 100 nM | 1000 to 10000 nM |  |  | 
15 | O=C(NCC(O)CN1CCc2ccccc2C1)c1ccc(-c2ccccn2)cc1 (centres unmarked) [Compound 13, N-(3-(3,4-dihydroisoquinolin-2(1H)-yl)-2-hydroxypropyl)-4-(pyridin-2-yl)benzamide] | < 100 nM | 101 to 1000 nM |  |  | 
16 | CN1CCC(Oc2ccc(C(=O)NCC(O)CN3CCc4ccccc4C3)cc2)CC1 (centres unmarked) [Compound 105] | < 100 nM | 1000 to 10000 nM |  |  | 
17 | O=C(NC[C@H](O)CN1CCc2ccccc2C1)c1ccnc(NCCNCC(F)(F)F)c1 [Compound 316] | < 100 nM | 1000 to 10000 nM |  |  | 
18 | CC(=O)N1CCC(Nc2cccc(C(=O)NCC(O)CN3CCc4ccccc4C3)c2)C1 (centres unmarked) [Compound 121] | < 100 nM | 101 to 1000 nM |  |  | 
19 | O=C(NCC(O)CN1CCc2ccccc2C1)c1cccc(OC2CCN(CC(F)(F)F)C2)c1 (centres unmarked) [Compound 137] | < 100 nM | 1000 to 10000 nM |  |  | 
20 | CC(=O)N1CCC(Nc2cccc(C(=O)NCC(O)CN3CCc4ccccc4C3)c2)CC1 (centres unmarked) [Compound 124] | < 100 nM | < 100 nM |  |  | 
21 | O=C(NCC(O)CN1CCc2ccccc2C1)c1cccc(CC2CCOCC2)c1 (centres unmarked) [Compound 59] | < 100 nM | 101 to 1000 nM |  |  | 

Row | Compound | EC50 [1] | EC50 ([2]; 120 h, Z-138 cells, 5 days) | EC50 ([2]; Z-138, 120 h) | EC50 ([1]; In Cell Western methylation) | EC50 ([2]; 120 h, Z-138 cells, 5 days, Cell Titer Glo)
22 | O=C(NC[C@H](O)CN1CCc2ccccc2C1)c1cccc(NC2CCOC2)c1 (some centres unmarked) [Compound 80] | < 100 nM | 101 to 1000 nM |  |  | 
23 | CN1CCC(N(C)c2cccc(C(=O)NCC(O)CN3CCc4ccccc4C3)c2)CC1 (centres unmarked) [Compound 131] | 101 to 1000 nM | 1000 to 10000 nM |  |  | 
24 | O=C(NCC(O)CN1CCc2ccccc2C1)c1ccc(CN2CCNCC2)cc1 (centres unmarked) [Compound 143] | < 100 nM | 1000 to 10000 nM |  |  | 
25 | CC(=O)N1CCC(Oc2cc(C(=O)NC[C@H](O)CN3CCc4ccccc4C3)ccn2)CC1 [Compound 205] | < 100 nM | 101 to 1000 nM |  |  | 
26 | O=C(NC[C@H](O)CN1CCc2ccccc2C1)c1ccnc(OC2CCNCC2)c1 [Compound 229] | < 100 nM | 1000 to 10000 nM |  |  | 
27 | CN1CCC(Nc2cccc(C(=O)NC[C@H](O)CN3CCc4ccccc4C3)c2)CC1 [Compound 239] | < 100 nM | 1000 to 10000 nM |  |  | 
28 | O=C(NC[C@H](O)CN1CCc2ccccc2C1)c1ccc2[nH]cnc2c1 [Compound 294] | 101 to 1000 nM | 1000 to 10000 nM |  |  | 
29 | CC(=O)N(C)CCNc1cc(C(=O)NC[C@H](O)CN2CCc3ccccc3C2)ccn1 [Compound 315] | < 100 nM | 101 to 1000 nM |  |  | 
30 | CS(=O)(=O)N1CCC(Oc2cc(C(=O)NC[C@H](O)CN3CCc4ccccc4C3)ccn2)CC1 [Compound 204] | < 100 nM | 101 to 1000 nM |  |  | 
31 | O=C(NCC(O)CN1CCc2ccccc2C1)c1ccc(OC2CCNCC2)cc1 (centres unmarked) [Compound 104] | < 100 nM | 1000 to 10000 nM |  |  | 
32 | CS(=O)(=O)N1CCC(Nc2cc(C(=O)NC[C@H](O)CN3CCc4ccccc4C3)ncn2)C1 (some centres unmarked) [Compound 257] | < 100 nM | 1000 to 10000 nM |  |  | 
33 | CN(CCN(C)S(C)(=O)=O)c1cc(C(=O)NC[C@H](O)CN2CCc3ccccc3C2)ccn1 [Compound 263] | < 100 nM | 1000 to 10000 nM |  |  | 
34 | CNC(=O)CCCN1CCN(Cc2cccc(C(=O)NCC(O)CN3CCc4ccccc4C3)c2)CC1 (centres unmarked) [Compound 175] | 101 to 1000 nM | 1000 to 10000 nM |  |  | 
35 | Cn1cc(C(=O)NC[C@H](O)CN2CCc3ccccc3C2)c2ccccc21 [Compound 246] | 101 to 1000 nM |  | 1000 to 10000 nM |  | 
36 | O=C(NC[C@H](O)CN1CCc2ccccc2C1)c1nccc2ccccc12 [Compound 272] | < 100 nM | 1000 to 10000 nM |  |  | 
37 | CN(C)C(=O)CNCc1cccc(C(=O)NCC(O)CN2CCc3ccccc3C2)c1 (centres unmarked) [Compound 118] | 101 to 1000 nM | > 20000 nM |  |  | 
38 | CC(C)N1CCC(Oc2ccc(C(=O)NCC(O)CN3CCc4ccccc4C3)cc2)C1 (centres unmarked) [Compound 196] | < 100 nM | 1000 to 10000 nM |  |  | 
39 | CS(=O)(=O)N1CCC(Nc2cccc(C(=O)NCC(O)CN3CCc4ccccc4C3)c2)CC1 (centres unmarked) [Compound 125] | < 100 nM | 101 to 1000 nM |  |  | 
40 | O=C(NC[C@H](O)CN1CCc2ccccc2C1)c1ccc2c(c1)OCO2 [Compound 244] | 101 to 1000 nM | 1000 to 10000 nM |  |  | 
41 | CN1CCN(Cc2cccc(C(=O)NCC(O)CN3CCc4ccccc4C3)c2)CC1CO (centres unmarked) [Compound 253] | 101 to 1000 nM | 1000 to 10000 nM |  |  | 
42 | O=C(NC[C@H](O)CN1CCc2ccccc2C1)c1ccccc1 [Compound 3, (S)—N-(3-(3,4-dihydroisoquinolin-2(1H)-yl)-2-hydroxypropyl)benzamide] | < 100 nM | 1000 to 10000 nM |  |  | 

Row | Compound | EC50 [1] | EC50 ([2]; 120 h, Z-138 cells, 5 days) | EC50 ([2]; Z-138, 120 h) | EC50 ([1]; In Cell Western methylation) | EC50 ([2]; 120 h, Z-138 cells, 5 days, Cell Titer Glo)
43 | O=C(NCC(O)CN1CCc2ccccc2C1)c1cc(F)cc(NC2CCOCC2)c1 (centres unmarked) [Compound 78] | < 100 nM | 101 to 1000 nM |  |  | 
44 | O=C(NCC(O)CN1CCc2ccccc2C1)c1cccc(-c2ccncc2)c1 (centres unmarked) [Compound 9, N-(3-(3,4-dihydroisoquinolin-2(1H)-yl)-2-hydroxypropyl)-3-(pyridin-4-yl)benzamide] | < 100 nM | 1000 to 10000 nM |  |  | 
45 | O=C(NCC(O)CN1CCc2ccccc2C1)c1cccc(OCCN2CCOCC2)c1 (centres unmarked) [Compound 133] | < 100 nM | 1000 to 10000 nM |  |  | 
46 | CS(=O)(=O)N1CCN(Cc2cccc(C(=O)NCC(O)CN3CCc4ccccc4C3)c2)CC1 (centres unmarked) [Compound 91] | < 100 nM | 1000 to 10000 nM |  |  | 
47 | O=C(NC[C@H](O)CN1CCc2ccccc2C1)c1cncc(OC2CCOCC2)c1 [Compound 183] | < 100 nM | 1000 to 10000 nM |  |  | 
48 | O=C(NCC(O)CN1CCc2ccccc2C1)c1cccc(CN2CCN(CC(F)(F)F)CC2)c1 (centres unmarked) [Compound 92] | < 100 nM | 1000 to 10000 nM |  |  | 
49 | Cn1nc(C(=O)NCC(O)CN2CCc3ccccc3C2)cc1NC1CCOCC1 (centres unmarked) [Compound 312] | 101 to 1000 nM | 1000 to 10000 nM |  |  | 
50 | CS(=O)(=O)N1CCC(Nc2cc(C(=O)NC[C@H](O)CN3CCc4ccccc4C3)ccn2)C1 (some centres unmarked) [Compound 227] | < 100 nM | 101 to 1000 nM |  |  | 
51 | Cc1ccc2cc(C(=O)NC[C@H](O)CN3CCc4ccccc4C3)ccc2n1 [Compound 221, (S)—N-(3-(3,4-dihydroisoquinolin-2(1H)-yl)-2-hydroxypropyl)-2-methylquinoline-6-carboxamide] | < 100 nM | 101 to 1000 nM |  |  | 
52 | CC(=O)N1CCC(Nc2cc(C(=O)NC[C@@H](O)CN3CCc4ccccc4C3)ncn2)CC1 [Compound 687] |  |  |  | < 100 nM | 101 to 1000 nM
53 | O=C(NC[C@H](O)CN1CCc2ccccc2C1)c1csc2ccccc12 [Compound 248] | 101 to 1000 nM | 1000 to 10000 nM |  |  | 
54 | O=C(NCC(O)CN1CCc2ccccc2C1)c1ccc(F)c(NC2CCOCC2)c1 (centres unmarked) [Compound 65] | < 100 nM | 1000 to 10000 nM |  |  | 
55 | Cc1c(NC2CCOCC2)ncnc1C(=O)NC[C@H](O)CN1CCc2ccccc2C1 [Compound 231] | < 100 nM | 1000 to 10000 nM |  |  | 
56 | CN1CCC(Nc2cc(C(=O)NC[C@H](O)CN3CCc4ccccc4C3)ncn2)C1 (some centres unmarked) [Compound 181] | 101 to 1000 nM | 1000 to 10000 nM |  |  | 
57 | CC(c1cccc(C(=O)NCC(O)CN2CCc3ccccc3C2)c1)N1CCN(C)CC1 (centres unmarked) [Compound 161] | < 100 nM | 1000 to 10000 nM |  |  | 
58 | O=C(NC[C@H](O)CN1CCc2ccccc2C1)c1cc(NC2CCNCC2)ncn1 [Compound 180] | 101 to 1000 nM | 10000 to 50000 nM |  |  | 
59 | Cc1cnc(NC2CCOC2)cc1C(=O)NC[C@H](O)CN1CCc2ccccc2C1 (some centres unmarked) [Compound 308] | 101 to 1000 nM | 10000 to 50000 nM |  |  | 
60 | CNCCNc1cc(C(=O)NC[C@H](O)CN2CCc3ccccc3C2)ccn1 [Compound 314] | < 100 nM | 10000 to 50000 nM |  |  | 
61 | O=C(O)CN1CCN(Cc2cccc(C(=O)NCC(O)CN3CCc4ccccc4C3)c2)CC1 (centres unmarked) [Compound 157] | 1000 to 10000 nM | > 20000 nM |  |  | 

From patent US10307413B2, “Tetrahydro- and dihydro-isoquinoline PRMT5 inhibitors and uses thereof” (Epizyme, Inc., priority 2013, dated 2019)
